Laboratory results taken from patent US9522891B2, “Pyridazine derivatives and use thereof as medicaments for treating microRNA viral infection” (INSTITUTE OF PHARMACOLOGY AND TOXICOLOGY ACADEMY OF …, priority 2010, dated 2016).
Values after ≈ are worked out from the molar mass of the structure shown. Values belong to the compound of their own block, whether it stands above or below them.

Assays:
[1] = Bioorg Med Chem. 2009, 17: 621-624; cited from earlier work
rhinovirus 3 (HRV-3) [2] = assay: Prophylactic administration, cell protection from CPE; format: cell-based; conditions: 100 ng/ml, TCID50 about 100, 3 days
rhinovirus 3 (HRV-3) [3] = assay: Measurement of half effective concentration (therapy); format: cell-based; conditions: Enterovirus, HRV3, HeLa cells, TCID50 about 100, 48 h, prevents 50% cells from CPE
rhinovirus 3 (HRV-3) [4] = assay: Therapeutic administration, cell protection from CPE; format: cell-based
rhinovirus 3 (HRV-3) [5] = assay: Measurement of inhibition index of compound; format: cell-based; conditions: highest dilution times of viral inhibition/nontoxic limit dilution times
Description: The inhibition index of drug was calculated: inhibition index=highest dilution times of viral inhibition/nontoxic limit dilution times.

rhinovirus 3 (HRV-3) [6] = assay: Maximum viral inhibition concentration; format: cell-based; conditions: compound concentration giving 100% inhibition of TCID50 about 100; virus added in doubling manner
HeLa cells = assay: Determination of the maximum nontoxic dose of the compound; format: cell-based; conditions: observed each 24 h for 3 days
Description: The drug was dissolved in DMSO, diluted with cell maintenance medium by 20 times, then diluted stepwise by 2 times to form working solutions with different concentrations. HeLa cells were inoculated on 96-well plate in an amount of 10,000 (0.1 mL) per well, added with 0.1 mL maintenance medium, incubated at 37° C. in adherence manner, sucked to remove maintenance medium, replaced it with 0.2 mL of compound working solution, and maintenance medium was used as control. The growth of cell was observed each 24 h, for 3 days.

rhinovirus (HRV) = conditions: cited from earlier work

SMILES: CCOc1ccc(OCCCN2CCN(c3ccc(Cl)nn3)CC2)cc1 [Example 1, 3-{4-[3-(4-ethoxylphenoxy)propyl]piperazin-1-yl}-6-chloropyridazine]
- melting point: 125 to 127 °C

SMILES: Cc1ccc(OCCCN2CCN(c3ccc(Cl)nn3)CC2)cc1 [Example 2, 3-{4-[3-(4-methylphenoxy)propyl]piperazin-1-yl}-6-chloropyridazine]
- melting point: 129 to 131 °C

SMILES: CCc1ccc(OCCCN2CCN(c3ccc(Cl)nn3)CC2)cc1 [Example 3, 3-{4-[3-(4-ethylphenoxy)propyl]piperazin-1-yl}-6-chloropyridazine]
- melting point: 123 to 125 °C

SMILES: CCOC(=O)c1ccc(OCCCN2CCN(c3ccc(Cl)nn3)CC2)cc1 [Example 6, 4-{3-[4-(6-chloropyridazin-3-yl)piperazin-1-yl]propoxy}benzoic acid ethyl ester]
- melting point: 125 to 127 °C

SMILES: CCOC(=O)c1ccc(OCCC2CCN(c3ccc(C)nn3)CC2)cc1 [Pirodavir]
- activity against rhinovirus (HRV) (rhinovirus (HRV); in vivo and in vitro, literature): significant activity

Continued, in another order:

- EC50 (rhinovirus 3 (HRV-3) [3]): 0.025 µg/mL (≈ 0.0629 µM)
SMILES: CCOc1ccc(OCCN2CCN(c3cc(Cl)nnc3Cl)CC2)cc1 [Control 2, 3,6-dichloro-4-{4-[2-(4-ethoxylphenoxy)ethyl]piperazin-1-yl}pyridazine]
- toxicity [1]: relatively low toxicity
- protection effects in preventing phagocytosis (CPE) (rhinovirus 3 (HRV-3) [2]): good protection effects
- protection effects (rhinovirus 3 (HRV-3) [4]; therapeutic administration condition): good protection effects
- Cell protection rate (rhinovirus 3 (HRV-3) [4]; therapeutic administration, 100 ng/mL, TCID50 100, HeLa cells, 48 h): 100%
- Inhibition index (rhinovirus 3 (HRV-3) [5]): 1/625
- Maximum inhibition virus titer (rhinovirus 3 (HRV-3) [6]): ≦200 TCID50
- Maximum nontoxic dose (HeLa cells): 31.3 µg/mL
- index of selectivity (rhinovirus (HRV); Bioorg Med Chem. 2009, 17: 621-624): relatively high index of selectivity
- inhibition activity to HRV (rhinovirus (HRV); compared to Pirodavir, Bioorg Med Chem. 2009, 17: 621-624): activity comparable to Pirodavir

- melting point: 125 to 127 °C
SMILES: CC(C)c1ccc(OCCCN2CCN(c3ccc(Cl)nn3)CC2)cc1 [Example 4, 3-{4-[3-(4-isopropylphenoxy)propyl]piperazin-1-yl}-6-chloropyridazine]

- melting point: 128 to 130 °C
SMILES: COC(=O)c1ccc(OCCCN2CCN(c3ccc(Cl)nn3)CC2)cc1 [Example 5, 4-{3-[4-(6-chloropyridazin-3-yl)piperazin-1-yl]propoxy} benzoic acid methyl ester]
